Assay results reported in patent publication US20130303509A1, “NAMPT INHIBITORS” (AbbVie Inc., priority 2012, published 2013).

What follows are molecules tested on PC3 cells (assay: NAMPT Cell Proliferation Assay). Conditions: Homo sapiens, PC-3, 120 h, 5 days incubation, cell viability by Cell Titer Glo.
Type: cell-based
Method in brief: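 Seeded at 500 cells/well in RPMI with 10% heat-inactivated FBS and left to attach overnight at 37° C, 5% CO2. Compounds were added as 10-fold dilutions […] for 5 days, then viability was read by CellTiter-Glo. IC50s came from sigmoidal fits of percent inhibition.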

Row | IC50 [nM] | Structure (SMILES)
1 | 10.4 | CC(=O)N1CCC(Oc2ccc(NC(=O)C3CN(c4cccnn4)C3)cc2)CC1 [Example 244, -{4-[(1-acetylpiperidin-4-yl)oxy]phenyl}-1-(pyridazin-3-yl)azetidine-3-carboxamide]
2 | 3.13 | CC(C)(C)Cc1nc(-c2ccc(NC(=O)C3CN(c4cccnn4)C3)cc2)no1 [Example 806, N-{4-[5-(2,2-dimethylpropyl)-1,2,4-oxadiazol-3-yl]phenyl}-1-(pyridazin-3-yl)azetidine-3-carboxamide]
3 | 1.81 | O=C(Nc1ccc(C2CCN(C(=O)CCN3CCCCC3)CC2)cc1)C1CN(c2cccnc2)C1 [Example 130, N-(4-{1-[3-(piperidin-1-yl)propanoyl]piperidin-4-yl}phenyl)-1-(pyridin-3-yl)azetidine-3-carboxamide]
4 | 709 | CC1CC1C(=O)N1CCC(c2ccc(C(=O)N[C@H]3CCN(c4cccnn4)C3)s2)CC1 (stereo partly drawn) [Example 762, 5-{1-[(2-methylcyclopropyl)carbonyl]piperidin-4-yl}-N-[(3S)-1-(pyridazin-3-yl)pyrrolidin-3-yl]thiophene-2-carboxamide]
5 | 5010 | CC(C)Cn1cc(-c2cc(C(=O)N[C@H]3CCN(c4ccc(Cl)nn4)C3)cs2)cn1 [Example 629, N-[(3S)-1-(6-chloropyridazin-3-yl)pyrrolidin-3-yl]-5-[1-(2-methylpropyl)-1H-pyrazol-4-yl]thiophene-3-carboxamide]
6 | 64.6 | CCC(C)(C)CN1CCC(c2ccc(NC(=O)C3CN(c4cccnc4)C3)cc2)CC1 [Example 89, N-{4-[1-(2,2-dimethylbutyl)piperidin-4-yl]phenyl}-1-(pyridin-3-yl)azetidine-3-carboxamide]
7 | 0.68 | O=C(Nc1ccc(O[C@@H]2CCN(C(=O)c3ccsc3)C2)cc1)C1CN(c2cccnn2)C1 [Example 490, 1-(pyridazin-3-yl)-N-(4-{[(3R)-1-(thiophen-3-ylcarbonyl)pyrrolidin-3-yl]oxy}phenyl)azetidine-3-carboxamide]
8 | 55.3 | O=C(Nc1ccc(S(=O)(=O)C2CCN(C(=O)c3ccccc3)CC2)cc1)C1CN(c2cccnn2)C1 [Example 574, N-{4-[(1-benzoylpiperidin-4-yl)sulfonyl]phenyl}-1-(pyridazin-3-yl)azetidine-3-carboxamide]
9 | 3.54 | O=C(Nc1ccc(OC2CCN(C(=O)c3nccs3)CC2)cc1)C1CN(c2cccnc2)C1 [Example 68, 1-(pyridin-3-yl)-N-(4-{[1-(1,3-thiazol-2-ylcarbonyl)piperidin-4-yl]oxy}phenyl)azetidine-3-carboxamide]
10 | 7310 | Cc1cc(F)ncc1N1CC(C(=O)Nc2ccc(C3CCN(C(=O)c4ccccc4)CC3)cc2)C1 [Example 739, N-[4-(1-benzoylpiperidin-4-yl)phenyl]-1-(6-fluoro-4-methylpyridin-3-yl)azetidine-3-carboxamide]
11 | 0.75 | O=C(Nc1ccc(C2CCN(C(=O)c3ccccc3Cl)CC2)cc1)C1CN(c2cccnn2)C1 [Example 350, N-{4-[1-(2-chlorobenzoyl)piperidin-4-yl]phenyl}-1-(pyridazin-3-yl)azetidine-3-carboxamide]
12 | 3.12 | CC(=O)N1CCC(c2ccc(NC(=O)C3CN(c4cccnn4)C3)cc2)CC1 [Example 316, N-[4-(1-acetylpiperidin-4-yl)phenyl]-1-(pyridazin-3-yl)azetidine-3-carboxamide]
13 | 121 | O=C(Nc1ccc(OC2CCN(C(=O)c3ccc(C(F)(F)F)cc3)CC2)cc1)C1CN(c2ccnnc2)C1 [Example 287, 1-(pyridazin-4-yl)-N-[4-({1-[4-(trifluoromethyl)benzoyl]piperidin-4-yl}oxy)phenyl]azetidine-3-carboxamide]
14 | 21.7 | O=C(Nc1ccc(C2CCN(C(=O)CC3CCOCC3)CC2)cc1)[C@H]1CCN(c2cccnn2)C1 [Example 312, (3S)-1-(pyridazin-3-yl)-N-{4-[1-(tetrahydro-2H-pyran-4-ylacetyl)piperidin-4-yl]phenyl}pyrrolidine-3-carboxamide]
15 | 44.1 | O=C(Nc1ccc(C2CCN(C(=O)c3ccc(C(F)(F)F)cc3)CC2)cc1)C1CN(c2ccnnc2)C1 [Example 553, 1-(pyridazin-4-yl)-N-(4-{1-[4-(trifluoromethyl)benzoyl]piperidin-4-yl}phenyl)azetidine-3-carboxamide]
16 | 1020 | O=C(N[C@H]1CCN(c2cccnn2)C1)c1ccc(C2CCN(C(=O)C3CCOC3)CC2)s1 (stereo partly drawn) [Example 765, N-[(3S)-1-(pyridazin-3-yl)pyrrolidin-3-yl]-5-[1-(tetrahydrofuran-3-ylcarbonyl)piperidin-4-yl]thiophene-2-carboxamide]
17 | 6.96 | O=C(Nc1ccc(OC2CCN(C(=O)C3CCCCC3)CC2)cc1)C1CN(c2cccnc2)C1 [Example 49, N-(4-{[1-(cyclohexylcarbonyl)piperidin-4-yl]oxy}phenyl)-1-(pyridin-3-yl)azetidine-3-carboxamide]

Row | IC50 [nM] | Structure (SMILES)
18 | 8.06 | O=C(Nc1ccc(C2CCN(C(=O)c3ccccc3)CC2)cc1)C1CN(c2cncc(F)c2)C1 [Example 666, N-[4-(1-benzoylpiperidin-4-yl)phenyl]-1-(5-fluoropyridin-3-yl)azetidine-3-carboxamide]
19 | 7.57 | CCOCCC(=O)N1CCC(c2ccc(NC(=O)C3CN(c4cccnn4)C3)cc2)CC1 [Example 380, N-{4-[1-(3-ethoxypropanoyl)piperidin-4-yl]phenyl}-1-(pyridazin-3-yl)azetidine-3-carboxamide]
20 | 386 | CN(C)CCC(=O)N1CCC(Oc2ccc(NC(=O)C3CN(c4cccnc4)C3)cc2)CC1 [Example 67, N-(4-{[1-(N,N-dimethyl-beta-alanyl)piperidin-4-yl]oxy}phenyl)-1-(pyridin-3-yl)azetidine-3-carboxamide]
21 | 188 | O=C(NC1CN(c2cccnn2)C1)c1ccc(C2CCN(C(=O)c3cc(F)cc(F)c3)CC2)s1 [Example 816, 5-[1-(3,5-difluorobenzoyl)piperidin-4-yl]-N-[1-(pyridazin-3-yl)azetidin-3-yl]thiophene-2-carboxamide]
22 | 269 | O=C(Nc1ccc(S(=O)(=O)C2CCN(C(=O)CCC(F)(F)F)CC2)cc1)C1CN(c2cccnn2)C1 [Example 575, 1-(pyridazin-3-yl)-N-(4-{[1-(4,4,4-trifluorobutanoyl)piperidin-4-yl]sulfonyl}phenyl)azetidine-3-carboxamide]
23 | 219 | O=C(Nc1ccc(S(=O)(=O)C2CCN(C(=O)Cc3ccccc3)CC2)cc1)C1CN(c2cccnn2)C1 [Example 600, N-(4-{[1-(phenylacetyl)piperidin-4-yl]sulfonyl}phenyl)-1-(pyridazin-3-yl)azetidine-3-carboxamide]
24 | 2.7 | CC(C)(C)C(=O)N1CCC(c2ccc(NC(=O)C3CN(c4cccnn4)C3)c(F)c2)CC1 [Example 859, N-{4-[1-(2,2-dimethylpropanoyl)piperidin-4-yl]-2-fluorophenyl}-1-(pyridazin-3-yl)azetidine-3-carboxamide]
25 | 17.4 | O=C(Nc1ccc(O[C@@H]2CCN(C(=O)c3cccc(F)c3)C2)cc1)C1CN(c2ccnnc2)C1 [Example 476, N-(4-{[(3R)-1-(3-fluorobenzoyl)pyrrolidin-3-yl]oxy}phenyl)-1-(pyridazin-4-yl)azetidine-3-carboxamide]
26 | 22.4 | Cc1ncccc1N1CC(C(=O)Nc2ccc(C3CCN(C(=O)c4cccn4C)CC3)cc2)C1 [Example 188, 1-(2-methylpyridin-3-yl)-N-(4-{1-[(1-methyl-1H-pyrrol-2-yl)carbonyl]piperidin-4-yl}phenyl)azetidine-3-carboxamide]
27 | 739 | CC(C)(C)OC(=O)N1CCC(Oc2ccc(NC(=O)[C@@H]3CCN(c4cccnc4)C3)cc2)CC1 [Example 9, tert-butyl 4-[4-({[(3R)-1-(pyridin-3-yl)pyrrolidin-3-yl]carbonyl}amino)phenoxy]piperidine-1-carboxylate]
28 | 61.1 | O=C(NC1CN(c2cccnn2)C1)c1ccc(C2CCN(C(=O)c3ccccc3)CC2)s1 [Example 810, 5-(1-benzoylpiperidin-4-yl)-N-[1-(pyridazin-3-yl)azetidin-3-yl]thiophene-2-carboxamide]
29 | 2.9 | O=C(Nc1ccc(C2CCN(C(=O)c3ccccc3)CC2)cc1)[C@H]1CCN(c2cccnn2)C1 [Example 311, (3S)—N-[4-(1-benzoylpiperidin-4-yl)phenyl]-1-(pyridazin-3-yl)pyrrolidine-3-carboxamide]
30 | 14.4 | CCC(=O)N1CCC(c2ccc(NC(=O)[C@H]3CCN(c4cccnn4)C3)cc2)CC1 [Example 658, (3S)-N-[4-(1-propanoylpiperidin-4-yl)phenyl]-1-(pyridazin-3-yl)pyrrolidine-3-carboxamide]
31 | 9.39 | O=C(Nc1ccc(C2CCN(C(=O)c3cccc(C(F)(F)F)c3)CC2)cc1)C1CN(c2ccnnc2)C1 [Example 535, 1-(pyridazin-4-yl)-N-(4-{1-[3-(trifluoromethyl)benzoyl]piperidin-4-yl}phenyl)azetidine-3-carboxamide]
32 | 0.64 | Cc1ccsc1C(=O)N1CCC(c2ccc(NC(=O)C3CN(c4cccnc4)C3)cc2)CC1 [Example 111, N-(4-{1-[(3-methylthiophen-2-yl)carbonyl]piperidin-4-yl}phenyl)-1-(pyridin-3-yl)azetidine-3-carboxamide]
33 | 72.5 | CC[C@H](C)C(=O)N1CCC(Oc2ccc(C(=O)NC3CN(c4cccnc4)C3)cc2)CC1 [Example 23, 4-({1-[(2S)-2-methylbutanoyl]piperidin-4-yl}oxy)-N-[1-(pyridin-3-yl)azetidin-3-yl]benzamide]
34 | 38.7 | O=C(Nc1ccc(OC2CN(C(=O)c3ccc(C(F)(F)F)cc3)C2)cc1)C1CN(c2ccnnc2)C1 [Example 205, 1-(pyridazin-4-yl)-N-[4-({1-[4-(trifluoromethyl)benzoyl]azetidin-3-yl}oxy)phenyl]azetidine-3-carboxamide]

Row | Structure (SMILES) | IC50 [nM]
35 | O=C(Nc1ccc(C2CC3CCC(C2)N3C(=O)CCC(F)(F)F)cc1)C1CN(c2cccnn2)C1 (centres unmarked) [Example 841, 1-(pyridazin-3-yl)-N-{4-[8-(4,4,4-trifluorobutanoyl)-8-azabicyclo[3.2.1]oct-3-yl]phenyl}azetidine-3-carboxamide] | 3.55
